Experimental data published in patent US10076519B2 (CYTOKINETICS, INC., priority 2010, dated 2018).

What follows are compounds tested on rabbit skeletal myofibrils (fast skeletal myofibrils) (assay: Activation of fast skeletal myofibrils (PUMA assay, PK/LDH-coupled ATPase at pCa25)). Details: AC1.4 determined according to the procedure of Example 39; reported as class symbols.
Format: biochemical
Outline: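 Detergent-washed rabbit psoas myofibrils (~90% fast fibres, calcium-regulated) assayed at calcium giving 25% of maximal ATPase rate (pCa25). ADP turnover coupled via pyruvate kinase/lactate dehydrogenase to NADH oxidation, read at 340 nm. Buffer 12 mM PIPES, 2 mM MgCl2, 1 mM DTT, pH 6.8; AC1.4 values derived.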
`CC(C)(CNc1ccc(-c2ccc3[nH]nc(N)c3c2)nn1)c1ccc(CCO)cc1` was tested, and the “Mean AC1.4” value was “B (B=1-10 uM)”. For `CC(C)(CNc1ccc(-c2ccccn2)nn1)c1ccc(F)cc1` [[2-(4-fluorophenyl)-2-methylpropyl](6-(2-pyridyl)pyridazin-3-yl)amine], the “Mean AC1.4” value was “B (B=1-10 uM)”. In the case of `Nc1n[nH]c2ccc(-c3ccc(NCC4(c5ccc(F)cc5)CCCC4)nn3)cc12` [[6-(3-amino(1H-indazol-5-yl))pyridazin-3-yl]{[(4-fluorophenyl)cyclopentyl]meth-yl}amine], the “Mean AC1.4” value is reported as “A (A=<1 uM)”. For `CC(C)(CNc1ccc(-c2ccc3[nH]c(=O)[nH]c3c2)nn1)c1ccccc1CO`, the “Mean AC1.4” value was “B (B=1-10 uM)”. With `CNc1n[nH]c2ccc(-c3ccc(NCC4(c5ncccc5F)CCC4)nn3)cc12` [{[(3-fluoro(2-pyridyl))cyclobutyl]methyl}{6-[3-(methylamino)(1H-indazol-5-yl)]pyridazin-3-yl}amine] the “Mean AC1.4” value was “A (A=<1 uM)”. In the case of `Cc1ccc(C(C)(C)CNc2ccc(-c3ccc4[nH]nc(N)c4c3)nn2)cc1` [[6-(3-amino(1H-indazol-5-yl))pyridazin-3-yl][2-methyl-2-(4-methylphenyl)propyl]amine], the “Mean AC1.4” value is reported as “A (A=<1 uM)”. With `CC(C)(CNc1ccc(-c2ccc3[nH]nc(C(N)=O)c3c2)nn1)c1ccc(F)cc1` [5-(6-{[2-(4-fluorophenyl)-2-methylpropyl]amino}pyridazin-3-yl)-1H-indazole-3-carboxamide] the “Mean AC1.4” value was “A (A=<1 uM)”. With `CC(Nc1ccc(-c2cccc(C(N)=O)c2)nn1)c1ccc(F)cc1` (stereo not drawn) the “Mean AC1.4” value was “C (C=10-20 uM)”. `CC(C)(CNc1ccc(-c2ccc3c(N)noc3c2)nn1)c1ccc(F)cc1` [[6-(3-aminobenzo[d]isoxazol-6-yl)pyridazin-3-yl][2-(4-fluorophenyl)-2-methylpropyl]amine] was tested, and the “Mean AC1.4” value was “A (A=<1 uM)”. `CC(C)Nc1n[nH]c2ccc(-c3ccc(NCC(C)(C)c4ccc(F)cc4)nn3)cc12` [[2-(4-fluorophenyl)-2-methylpropyl](6-{3-[(methylethyl)amino](1H-indazol-5-yl)}pyridazin-3-yl)amine] was tested, and the “Mean AC1.4” value was “A (A=<1 uM)”. `COc1cccc(C2(CNc3ccc(-c4ccc5[nH]ncc5c4)nn3)CCC2)n1` [(6-(1H-indazol-5-yl)pyridazin-3-yl){[(6-methoxy(2-pyridyl))cyclobutyl]methyl}amine] was tested, and the “Mean AC1.4” value was “A (A=<1 uM)”. In the case of `NC(=O)c1cccc(-c2ccc(NCCc3cccc(Cl)c3)nn2)c1`, the “Mean AC1.4” value is reported as “B (B=1-10 uM)”. `CC(C)(CNc1ccc(-c2ccc3[nH]c(=O)[nH]c3c2)nn1)c1ccccc1F` was tested, and the “Mean AC1.4” value was “A (A=<1 uM)”. With `CC(C)(CNc1ccc(C(=O)NC(CCC(N)=O)C(N)=O)nn1)c1ccc(F)cc1` (stereo not drawn) [N-(1,3-dicarbamoylpropyl)(6-{[2-(4-fluorophenyl)-2-methylpropyl]amino}pyridazin-3-yl)carboxamide] the “Mean AC1.4” value was “D (D=>20 uM)”. With `CC(C)(CNc1nnc(-c2cccc(C(N)=O)c2)cc1C(N)=O)c1ccc(F)cc1` [6-(3-carbamoylphenyl)-3-{[2-(4-fluorophenyl)-2-methylpropyl]amino}pyridazine-4-carboxamide] the “Mean AC1.4” value was “B (B=1-10 uM)”. For `CC(C)(CNc1ccc(C(=O)N2CCCCC2C(N)=O)nn1)c1ccc(F)cc1` (stereo not drawn) [1-[(6-{[2-(4-fluorophenyl)-2-methylpropyl]amino}pyridazin-3-yl)carbonyl]piperidine-2-carboxamide], the “Mean AC1.4” value was “D (D=>20 uM)”. In the case of `NC(=O)c1cccc(-c2ccc(NCC3(c4ccccc4Cl)CC3)nn2)c1` [3-[6-({[(2-chlorophenyl)cyclopropyl]meth-yl}amino)pyridazin-3-yl]benzamide], the “Mean AC1.4” value is reported as “A (A=<1 uM)”. In the case of `CC(C)(CNc1ccc(-c2cccnc2O)nn1)c1ccc(F)cc1` [3-(6-{[2-(4-fluorophenyl)-2-methylpropyl]amino}pyridazin-3-yl)pyridin-2-ol], the “Mean AC1.4” value is reported as “B (B=1-10 uM)”.

Same assay, conditions: median AC1.4 class, procedure of Example 39
`CC(C)(Nc1ccc(-c2cccc(C#N)c2)nn1)c1ccccc1` [3-{6-[(1-methyl-1-phenylethyl)amino]pyridazin-3-yl}benzenecarbonitrile] was tested, and the “Mean AC1.4” value was “B (B=1-10 uM)”. With `NCc1ccccc1-c1ccc(NCC2(c3ncccc3F)CCC2)nn1` [{6-[2-(aminomethyl)phenyl]pyridazin-3-yl}{[(3-fluoro(2-pyridyl))cyclobutyl]methyl}amine] the “Mean AC1.4” value was “D (D=>20 uM)”. `CS(=O)(=O)Nc1n[nH]c2ccc(-c3ccc(NC[C@]4(c5ncccc5F)C[C@H](F)C4)nn3)cc12` [{5-[6-({[3-fluoro-1-(3-fluoro(2-pyridyl))cyclobutyl]methyl}ami-no)pyridazin-3-yl](1H-indazol-3-yl)}(methylsulfonyl)amine] was tested, and the “Mean AC1.4” value was “A (A=<1 uM)”. In the case of `CCOC(=O)c1nc(-c2cc(Cl)c(NCC3(c4ncccc4F)CCC3)nn2)sc1Cl` [ethyl 5-chloro-2-[5-chloro-6-({[(3-fluoro(2-pyridyl))cyclobutyl]methyl}ami-no)pyridazin-3-yl]-1,3-thiazole-4-carboxylate], the “Mean AC1.4” value is reported as “D (D=>20 uM)”. With `NC(=O)Nc1ncc(-c2ccc(NCC3(c4ncccc4F)CCC3)nn2)cn1` the “Mean AC1.4” value was “D (D=>20 uM)”. For `Fc1cccnc1C1(CNc2ccc(-c3ccccc3)nn2)CCC1` [{[(3-fluoro(2-pyridyl))cyclobutyl]methyl}(6-phenylpyridazin-3-yl)amine], the “Mean AC1.4” value was “A (A=<1 uM)”. In the case of `O=C(NC[C@@H](O)CO)c1ccc(F)c(-c2ccc(NC[C@]3(c4ncccc4F)C[C@H](F)C3)nn2)c1` [N-((2R)-2,3-dihydroxypropyl){4-fluoro-3-[6-({[3-fluoro-1-(3-fluoro(2-pyridyl))cyclobutyl]methyl}ami-no)pyridazin-3-yl]phenyl}carboxamide], the “Mean AC1.4” value is reported as “A (A=<1 uM)”. For `NC(=O)c1cnn(Cc2ccc(NC3(c4ncccc4F)CCC3)nn2)c1`, the “Mean AC1.4” value was “D (D=>20 uM)”. `NC(=O)c1ccc(-c2ccc(NC3(c4ncccc4F)CCC3)nn2)s1` [5-(6-{[(3-fluoro-2-pyridyl)cyclobutyl]amino}pyr-idazin-3-yl)thiophene-2-carboxamide] was tested, and the “Mean AC1.4” value was “B (B=1-10 uM)”. With `N#Cc1cncc(-c2ccc(NCC3(c4ncccc4F)CCC3)nn2)n1` [6-[6-({[(3-fluoro-2-pyridyl)cyclobutyl]methyl}ami-no)pyridazin-3-yl]pyrazine-2-carbonitrile] the “Mean AC1.4” value was “B (B=1-10 uM)”. In the case of `Fc1cccnc1C1(CNc2ccc(-c3cnc(N4CCNCC4)nc3)nn2)CCC1` [{[(3-fluoro(2-pyridyl))cyclobutyl]methyl}[6-(2-piperazinylpyrimidin-5-yl)pyridazin-3-yl]amine], the “Mean AC1.4” value is reported as “D (D=>20 uM)”. `COC(=O)Nc1ncc(-c2ccc(NCC3(c4ncccc4F)CCC3)nn2)cn1` was tested, and the “Mean AC1.4” value was “D (D=>20 uM)”. For `CC(C)(C)Nc1ccc(-c2cccc(C(N)=O)c2)nn1` [3-{6-[(tert-butyl)amino]pyridazin-3-yl}benzamide], the “Mean AC1.4” value was “C (C=10-20 uM)”.

Same assay, conditions: median AC1.4 reported as class; procedure of Example 39
In the case of `O=C(NCC(F)F)c1ccc(F)c(-c2ccc(NC[C@]3(c4ncccc4F)C[C@H](F)C3)nn2)c1` [N-(2,2-difluoroethyl){4-fluoro-3-[6-({[3-fluoro-1-(3-fluoro(2-pyridyl))cyclobutyl]methyl}ami-no)pyridazin-3-yl]phenyl}carboxamide], the “Mean AC1.4” value is reported as “B (B=1-10 uM)”. With `CN(Cc1cnc(-c2ccc(NCC3(c4ncccc4F)CCC3)nn2)s1)C(=O)C(C)(C)N` [2-amino-N-({2-[6-({[(3-fluoro(2-pyridyl))cyclobutyl]methyl}ami-no)pyridazin-3-yl](1,3-thiazol-5-yl)}methyl)-2-methyl-N-methylpropanamide] the “Mean AC1.4” value was “A (A=<1 uM)”. `Cc1cc(C#N)c(O)c(-c2ccc(NCC3(c4ncccc4F)CCC3)nn2)c1` [3-[6-({[(3-fluoro(2-pyridyl))cyclobutyl]methyl}ami-no)pyridazin-3-yl]-2-hydroxy-5-methylbenzenecarbonitrile] was tested, and the “Mean AC1.4” value was “B (B=1-10 uM)”. With `CNC(=O)c1ccc(O)c(-c2ccc(NC[C@]3(c4ncccc4F)C[C@H](F)C3)nn2)c1` [{3-[6-({[3-fluoro-1-(3-fluoro(2-pyridyl))cyclobutyl]methyl}ami-no)pyridazin-3-yl]-4-hydroxyphenyl}-N-methylcarboxamide] the “Mean AC1.4” value was “B (B=1-10 uM)”. `O=C(NC1CC(O)C1)c1cccc(-c2ccc(NC[C@]3(c4ncccc4F)C[C@H](F)C3)nn2)c1` (stereo partly drawn) [{3-[6-({[3-fluoro-1-(3-fluoro(2-pyridyl))cyclobutyl]methyl}ami-no)pyridazin-3-yl]phenyl}-N-(3-hydroxycyclobutyl)carboxamide] was tested, and the “Mean AC1.4” value was “B (B=1-10 uM)”. With `Cc1cc(NCC2(c3ncccc3F)CCC2)nnc1-c1ncc(CO)s1` [{2-[6-({[(3-fluoro(2-pyridyl))cyclobutyl]methyl}amino)-4-methylpyridazin-3-yl]-1,3-thiazol-5-yl}methan-1-ol] the “Mean AC1.4” value was “B (B=1-10 uM)”. For `NC(=O)c1cccc(-c2ccc(NC[C@]3(c4ncccc4F)C[C@H](F)C3)nn2)c1O` [3-[6-({[3-fluoro-1-(3-fluoro(2-pyridyl))cyclobutyl]methyl}ami-no)pyridazin-3-yl]-2-hydroxybenzamide], the “Mean AC1.4” value was “A (A=<1 uM)”. For `Cn1ccc(CNC(=O)c2ccc(NCC3(c4ncccc4F)CCC3)nn2)n1` [[6-({[(3-fluoro(2-pyridyl))cyclobutyl]methyl}ami-no)pyridazin-3-yl]-N-[(1-methylpyrazol-3-yl)methyl]carboxamide], the “Mean AC1.4” value was “D (D=>20 uM)”. With `Cc1c(-c2ccc(NCC3(c4ncccc4F)CCC3)nn2)[nH][nH]c1=O` [3-[6-({[(3-fluoro(2-pyridyl))cyclobutyl]methyl}ami-no)pyridazin-3-yl]-4-methyl-3-pyrazolin-5-one] the “Mean AC1.4” value was “D (D=>20 uM)”. For `C[C@@H](O)C(=O)NCc1cnc(-c2ccc(NCC3(c4ncccc4F)CCC3)nn2)s1` [(2R)-N-({2-[6-({[(3-fluoro(2-pyridyl))cyclobutyl]methyl}ami-no)pyridazin-3-yl](1,3-thiazol-5-yl)}methyl)-2-hydroxypropanamide], the “Mean AC1.4” value was “A (A=<1 uM)”. For `CNC(=O)c1cc(-c2ccc(NC[C@]3(c4ncccc4F)C[C@H](F)C3)nn2)c(F)cc1O` [{4-fluoro-5-[6-({[3-fluoro-1-(3-fluoro(2-pyridyl))cyclobutyl]methyl}ami-no)pyridazin-3-yl]-2-hydroxyphenyl}-N-methylcarboxamide], the “Mean AC1.4” value was “A (A=<1 uM)”.
